IC50 data for three compounds are collected here from US20080096868A1, “1,4 Substituted Pyrazolopyrimidines as Kinase Inhibitors” (priority 2004, published 2008).

This assay addresses T1, EphB4 kinase (Homo sapiens, UniProt P54760).
T1 construct: made in house; host or cells: Sf9 or Sf21 insect cells (baculovirus)
T1 sequence (P54760 566-987): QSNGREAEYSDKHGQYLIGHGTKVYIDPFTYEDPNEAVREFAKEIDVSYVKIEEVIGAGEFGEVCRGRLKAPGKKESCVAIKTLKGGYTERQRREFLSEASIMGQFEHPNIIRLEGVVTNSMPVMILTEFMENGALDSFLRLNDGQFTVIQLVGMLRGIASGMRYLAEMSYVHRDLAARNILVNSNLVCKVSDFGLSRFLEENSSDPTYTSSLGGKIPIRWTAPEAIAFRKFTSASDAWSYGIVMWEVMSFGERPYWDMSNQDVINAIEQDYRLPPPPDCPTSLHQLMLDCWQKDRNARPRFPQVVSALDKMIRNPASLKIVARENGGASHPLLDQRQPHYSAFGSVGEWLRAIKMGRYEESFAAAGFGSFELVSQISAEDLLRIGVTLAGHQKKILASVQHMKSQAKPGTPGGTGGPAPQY
The assay is described as follows: Inhibition of EphB4 kinase activity (33P incorporation into poly(Glu,Tyr), filter assay). Format: biochemical. The conditions noted are these: purified GST-EphB4, 2.0-3.0 μM ATP, poly(Glu,Tyr) 4:1; read-out: IC50 (μmol/l), Inhibition of EphB4 kinase. From the text: Generation of Bac-to-Bac™ (Invitrogen Life Technologies, Basel, Switzerland) GST-fusion expression vectors: Entire cytoplasmatic coding regions of the EphB-class are amplified by PCR from cDNA libraries derived from human placenta or brain, respectively. Recombinant baculovirus are generated that express the amino acid region 566-987 of the human EphB4 receptor (SwissProt Database, Accession No. P54760). GST sequence is cloned into pFastBac1® vector (Invitrogen Life Technologies, Basel, Switzerland) and PCR amplified. cDNAs encoding EphB4-receptor domains, respectively are cloned in frame 3′prime to the GST sequence into this modified FastBac1 vector to generate pBac-to-Bac™ donor vectors. Single colonies arising from the transformation are inoculated to give overnight cultures for small scale plasmid preparation. […] By automated sequencing the inserts and approximately 50 bp of the flanking vector sequences are confirmed on both strands.
Production of viruses: Viruses for each of the kinases are made according to the protocol supplied by GIBCO if not stated otherwise. In brief, transfer vectors containing the kinase domains are transfected into the DH10Bac cell line (GIBCO) and plated on selective agar plates. Colonies without insertion of the fusion sequence into the viral genome (carried by the bacteria) are blue. Single white colonies are picked and viral DNA (bac-mid) isolated from the bacteria by standard plasmid purification procedures. Sf9 cells or Sf21 cells are then transfected in 25 cm^2 flasks with the viral DNA using Cellfectin reagent according to the protocol. […]
Protein kinase assays: The activities of protein kinases are assayed in the presence or absence of inhibitors, by measuring the incorporation of ^33P from [γ^33P]ATP into a polymer of glutamic acid and tyrosine (poly(Glu,Tyr)) as a substrate. […] Membranes are counted after drying at ambient temperature, mounting in Packard TopCount96-well frame, and addition of 10 μL/well of Microscint™ (Packard). […]
In the case of `COc1ccc(-n2ncc3c(Nc4ccccc4C)ncnc32)cc1` [Example 21, [1-(4-Methoxy-phenyl)-1H-pyrazolo[3,4-d]pyrimidin-4-yl]-o-tolyl-amine], the IC50 turned out to be 0.16 µmol/L.

Regarding `COc1ccc(-n2ncc3c(Nc4cc(F)ccc4C)ncnc32)cc1` [Example 23, (5-Fluoro-2-methyl-phenyl)-[1-(4-methoxy-phenyl)-1H-pyrazolo[3,4-d]pyrimidin-4-yl]-amine], the IC50 worked out at 0.5 µmol/L.

In the case of `Cc1cccc(C)c1Nc1nc(CCCN(C)C)nc2c1cnn2-c1ccccc1` [Example 27, [6-(3-Dimethylamino-propyl)-1-phenyl-1H-pyrazolo[3,4-d]pyrimidin-4-yl]-(2,6-dimethyl-phenyl)-amine], the IC50 was 0.4 µmol/L.
